# Laboratory results from PubChem BioAssay AID1259407 (Chemical Carcinogenesis Research Information System (CCRIS), 2018).
# Calls of active or inactive are those of the source. No rule for the calls is given here.
# Tested on: CCRIS mutagenicity, Ames/micronucleus/aberration tests
# Experiment: CCRIS mutagenicity studies
# [1] = Test System: AMES SALMONELLA TYPHIMURIUM, Strain/Indicator: TA98, Metabolic Activation: NONE, Method: PREINCUBATION
# [2] = Test System: AMES SALMONELLA TYPHIMURIUM, Strain/Indicator: TA100, Metabolic Activation: NONE, Method: PREINCUBATION
# [3] = Test System: AMES SALMONELLA TYPHIMURIUM, Strain/Indicator: TA104, Metabolic Activation: NONE, Method: PREINCUBATION
# [4] = Test System: AMES SALMONELLA TYPHIMURIUM, Strain/Indicator: TA100, Metabolic Activation: RAT, LIVER, S-9, AROCLOR 1254, Method: STANDARD PLATE
# [5] = Test System: AMES SALMONELLA TYPHIMURIUM, Strain/Indicator: TA98, Metabolic Activation: NONE, Method: STANDARD PLATE
# [6] = Test System: AMES SALMONELLA TYPHIMURIUM, Strain/Indicator: TA100, Metabolic Activation: NONE, Method: STANDARD PLATE
smiles,measurement,setting,value
NNc1nncc2cccnc12,mutagenic call,[1],active; positive
same,mutagenic call,"Test System: AMES SALMONELLA TYPHIMURIUM, Strain/Indicator: TA98, Metabolic Activation: RAT, LIVER, S-9, PCB, Method: PREINCUBATION",active; positive
same,mutagenic call,[2],active; positive
same,mutagenic call,"Test System: AMES SALMONELLA TYPHIMURIUM, Strain/Indicator: TA100, Metabolic Activation: RAT, LIVER, S-9, PCB, Method: PREINCUBATION",active; positive
O[As](O)O,mutagenic call,"End Point: IN VIVO MICRONUCLEUS, Test System: BONE MARROW POLYCHROMATIC ERYTHROCYTES, Species: MOUSE, Strain/Sex: C57BL/6/MALE, Route: IP INJECTION",active; positive
O=C/C(CCl)=C(/Cl)C(=O)O,mutagenic call,[1],active; positive
same,mutagenic call,[2],active; positive
same,mutagenic call,[3],active; positive
Oc1cccc2c1-c1cc3cccc4ccc5ccc-2c1c5c43,mutagenic call,[4],active; positive
O=C1OC(O)C(C(Br)Br)=C1Cl (stereo unspecified),mutagenic call,[5],active; positive
same,mutagenic call,"Test System: AMES SALMONELLA TYPHIMURIUM, Strain/Indicator: TA98, Metabolic Activation: RAT LIVER S-9, AROCLOR 1254, Method: STANDARD PLATE",inactive; negative
same,mutagenic call,[6],active; positive
same,mutagenic call,"Test System: AMES SALMONELLA TYPHIMURIUM, Strain/Indicator: TA100, Metabolic Activation: RAT LIVER S-9, AROCLOR 1254, Method: STANDARD PLATE",inactive; negative
C=C(C)C=O,mutagenic call,"Test System: AMES SALMONELLA TYPHIMURIUM, Strain/Indicator: TA100, Metabolic Activation: NONE, Method: MODIFIED LIQUID SUSPENSION",active; positive
same,mutagenic call,[2],active; positive
same,mutagenic call,"Test System: AMES SALMONELLA TYPHIMURIUM, Strain/Indicator: TA100, Metabolic Activation: RAT LIVER S-9, AROCLOR 1254, Method: PREINCUBATION",active; positive
same,mutagenic call,"Test System: AMES SALMONELLA TYPHIMURIUM, Strain/Indicator: TA100, Metabolic Activation: RAT, LIVER, S-9, AROCLOR 1254, Method: MODIFIED LIQUID SUSPENSION",active; positive
same,mutagenic call,"Test System: AMES SALMONELLA TYPHIMURIUM, Strain/Indicator: TA100, Metabolic Activation: RAT, LIVER, S-9, AROCLOR 1254, Method: PREINCUBATION",active; positive
same,mutagenic call,[3],active; positive
same,mutagenic call,"Test System: CHINESE HAMSTER V-79, Strain/Indicator: V-79 (HPRT)/6-THIOGUANINE, Metabolic Activation: NONE",active; positive
same,mutagenic call,"Test System: CHINESE HAMSTER V-79, Strain/Indicator: V-79 (HPRT)/6-THIOGUANINE, Metabolic Activation: RAT LIVER S-9, AROCLOR 1254",inactive; negative
N[C@@H](CCC(=O)N(CC(=O)O)C(=O)[C@@H](N)CSCCCl)C(=O)O,mutagenic call,[6],active; positive
COP(=S)(OC)Oc1ccc([N+](=O)[O-])c(C)c1,mutagenic call,"End Point: IN VIVO MICRONUCLEUS, Test System: BONE MARROW POLYCHROMATIC ERYTHROCYTES, Species: MOUSE, Strain/Sex: DDY/MALE, Route: IP",inactive; negative
same,mutagenic call,[1],inactive; negative
same,mutagenic call,[5],inactive; negative
same,mutagenic call,"Test System: AMES SALMONELLA TYPHIMURIUM, Strain/Indicator: TA98, Metabolic Activation: RAT LIVER S-9 (10%), Method: PREINCUBATION",inactive; negative
same,mutagenic call,"Test System: AMES SALMONELLA TYPHIMURIUM, Strain/Indicator: TA98, Metabolic Activation: RAT, LIVER, S-9, AROCLOR 1254, Method: STANDARD PLATE",inactive; negative
same,mutagenic call,"Test System: AMES SALMONELLA TYPHIMURIUM, Strain/Indicator: TA98, Metabolic Activation: S-9, NADPH GENERATING SYSTEM, Method: STANDARD PLATE",inactive; negative
same,mutagenic call,[2],inactive; negative
same,mutagenic call,[6],inactive; negative
same,mutagenic call,"Test System: AMES SALMONELLA TYPHIMURIUM, Strain/Indicator: TA100, Metabolic Activation: RAT LIVER S-9 (10%), Method: PREINCUBATION",inactive; negative
same,mutagenic call,[4],inactive; negative
same,mutagenic call,"Test System: AMES SALMONELLA TYPHIMURIUM, Strain/Indicator: TA100, Metabolic Activation: S-9 MIX, Method: STANDARD PLATE",active; positive
same,mutagenic call,"Test System: AMES SALMONELLA TYPHIMURIUM, Strain/Indicator: TA102, Metabolic Activation: NONE, Method: STANDARD PLATE",inactive; negative
same,mutagenic call,"Test System: AMES SALMONELLA TYPHIMURIUM, Strain/Indicator: TA102, Metabolic Activation: S-9, NADPH GENERATING SYSTEM, Method: STANDARD PLATE",inactive; negative
same,mutagenic call,"Test System: AMES SALMONELLA TYPHIMURIUM, Strain/Indicator: TA1535, Metabolic Activation: NONE, Method: STANDARD PLATE",inactive; negative
same,mutagenic call,"Test System: AMES SALMONELLA TYPHIMURIUM, Strain/Indicator: TA1535, Metabolic Activation: S-9, NADPH GENERATING SYSTEM, Method: STANDARD PLATE",inactive; negative
same,mutagenic call,"Test System: AMES SALMONELLA TYPHIMURIUM, Strain/Indicator: TA1537, Metabolic Activation: NONE, Method: STANDARD PLATE",inactive; negative
same,mutagenic call,"Test System: AMES SALMONELLA TYPHIMURIUM, Strain/Indicator: TA1537, Metabolic Activation: S-9, NADPH GENERATING SYSTEM, Method: STANDARD PLATE",inactive; negative
same,mutagenic call,"Test System: AMES SALMONELLA TYPHIMURIUM, Strain/Indicator: YG1021, Metabolic Activation: NONE, Method: PREINCUBATION",inactive; negative
same,mutagenic call,"Test System: AMES SALMONELLA TYPHIMURIUM, Strain/Indicator: YG1021, Metabolic Activation: RAT LIVER S-9 (10%), Method: PREINCUBATION",inactive; negative
same,mutagenic call,"Test System: AMES SALMONELLA TYPHIMURIUM, Strain/Indicator: YG1024, Metabolic Activation: NONE, Method: PREINCUBATION",inactive; negative
same,mutagenic call,"Test System: AMES SALMONELLA TYPHIMURIUM, Strain/Indicator: YG1024, Metabolic Activation: RAT LIVER S-9 (10%), Method: PREINCUBATION",inactive; negative
same,mutagenic call,"Test System: AMES SALMONELLA TYPHIMURIUM, Strain/Indicator: YG1026, Metabolic Activation: NONE, Method: PREINCUBATION",active; positive
same,mutagenic call,"Test System: AMES SALMONELLA TYPHIMURIUM, Strain/Indicator: YG1026, Metabolic Activation: RAT LIVER S-9 (10%), Method: PREINCUBATION",active; positive
same,mutagenic call,"Test System: AMES SALMONELLA TYPHIMURIUM, Strain/Indicator: YG1029, Metabolic Activation: NONE, Method: PREINCUBATION",active; positive
same,mutagenic call,"Test System: AMES SALMONELLA TYPHIMURIUM, Strain/Indicator: YG1029, Metabolic Activation: RAT LIVER S-9 (10%), Method: PREINCUBATION",active; positive
same,mutagenic call,"Test System: AMES SALMONELLA TYPHIMURIUM, Strain/Indicator: YG1041, Metabolic Activation: NONE, Method: PREINCUBATION",active; positive
same,mutagenic call,"Test System: AMES SALMONELLA TYPHIMURIUM, Strain/Indicator: YG1041, Metabolic Activation: RAT LIVER S-9 (10%), Method: PREINCUBATION",active; positive
same,mutagenic call,"Test System: AMES SALMONELLA TYPHIMURIUM, Strain/Indicator: YG1042, Metabolic Activation: NONE, Method: PREINCUBATION",active; positive
same,mutagenic call,"Test System: AMES SALMONELLA TYPHIMURIUM, Strain/Indicator: YG1042, Metabolic Activation: RAT LIVER S-9 (10%), Method: PREINCUBATION",active; positive
